For data set [1], the target named is T1, Transcriptional regulator MvfR (Pseudomonas aeruginosa PA14, UniProt A0A072ZLE6).
T1 sequence (A0A072ZLE6 whole entry): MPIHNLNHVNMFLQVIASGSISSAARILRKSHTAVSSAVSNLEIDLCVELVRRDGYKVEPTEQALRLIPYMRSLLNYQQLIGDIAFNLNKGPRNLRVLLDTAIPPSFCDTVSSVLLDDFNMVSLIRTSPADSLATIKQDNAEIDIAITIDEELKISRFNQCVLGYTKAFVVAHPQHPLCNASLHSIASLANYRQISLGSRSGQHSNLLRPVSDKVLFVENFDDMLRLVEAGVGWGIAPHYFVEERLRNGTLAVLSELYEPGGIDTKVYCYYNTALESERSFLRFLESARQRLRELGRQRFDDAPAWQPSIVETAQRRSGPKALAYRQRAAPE
Put plainly: Inverse agonist activity at Pseudomonas aeruginosa PqsR extracted from Escherichia coli Dh5alpha co-expressing lacZ incubated with test compound in presence of pseudomonas quinolone signal (PQS) by ONPG/heterologous reporter gene assay. (In general: A reporter such as luciferase makes a cellular process visible.)

The next data set relates to Pseudomonas aeruginosa. Put plainly: Antivirulence activity against Pseudomonas aeruginosa PA14 assessed as inhibition of pyocyanin biosynthesis incubated for 16 hrs under agitation by photometric analysis. The data set is classed as functional, organism-based. Conditions: PA14, 16 h.
Data set [2] in a line: Metabolic stability in mouse liver microsomes assessed as half life at 1 uM measured after 30 mins by HPLC-MS/MS analysis. The data set is classed as ADME, Microsome. (In general: Liver microsomes are vesicles of endoplasmic reticulum, rich in cytochrome P450 enzymes.)
Data set [3] in a line: Kinetic aqueous solubility of the compound in PBS buffer incubated for 5 mins by turbidimetric aqueous solubility assay. It counts as physicochemical. As to conditions: read-out: Kinetic_solubility.
Data set [4] can be described thus: Lipophilicity, log D of the compound. As to conditions: octanol/water. It counts as physicochemical.

34 compounds from ChEMBL document CHEMBL5608201, “Discovery and optimization of thiazole-based quorum sensing inhibitors as potent blockers of Pseudomonas aeruginosa pathogenicity” (Eur J Med Chem, 2024) can be followed below.

≈ marks a conversion by molar mass, not a printed value. A value given as a limit tells only on which side of the number the result lay.

Regarding `CN(C)c1ccc(-c2ncc(CNc3ccnc(C(F)(F)F)c3)s2)cc1`, the IC50 in data set [1] was 728 nM; in the data set on Pseudomonas aeruginosa it was > 5000 nM. Moreover, the half-life at 1 µM in data set [2] came to 45 min. The solubility kinetic at 5 min in data set [3] is 13 µM (≈ 4.92 µg/mL).
Turning to `FC(F)(F)c1cc(NCc2cc(-c3ccc(Oc4ccccc4)cc3)n[nH]2)ccn1`, the 50% inhibitory concentration (IC50) in data set [1] was found to be 117 nM; with Pseudomonas aeruginosa, 524 nM. Further, in data set [2], the half-life at 1 µM stood at 23 min. Further, the solubility kinetic at 5 min in data set [3] came out at 15 µM (≈ 6.16 µg/mL). The compound further gave a pH-dependent lipophilicity (logD) in data set [4] of 4.35.
Consider `FC(F)(F)c1cc(NCc2ncsc2-c2ccc(Oc3ccccc3)cc2)ccn1`, for which the IC50 (in data set [1]; in the data set on Pseudomonas aeruginosa) was > 5 nM each time.
`FC(F)(F)c1cc(NCc2cnc(-c3ccc(Cl)cc3)s2)ccn1`: the IC50 in data set [1] is 67 nM; in the data set on Pseudomonas aeruginosa it was 591 nM. Also, in data set [2], the half-life at 1 µM turned out to be 122 min. For the same compound, the solubility kinetic at 5 min in data set [3] was 36 µM (≈ 13.3 µg/mL). In data set [4], this compound gave a logD of 4.28.
Take `FC(F)(F)c1cc(NCc2cnc(-c3ccc(Cl)s3)s2)ccn1`: the 50% inhibitory concentration (IC50) was 86 nM in data set [1] and > 5000 nM with Pseudomonas aeruginosa. The half-life at 1 µM in data set [2] worked out at 2 min. In addition, in data set [3], the solubility kinetic at 5 min is 43 µM (≈ 16.2 µg/mL).
For `CC(C)Oc1ccc(-c2ncc(CNc3ccnc(C(F)(F)F)c3)s2)cc1`, the IC50 in data set [1] amounted to 18 nM; in the data set with Pseudomonas aeruginosa, 118 nM. For the same compound, the half-life at 1 µM in data set [2] came to 29 min. In data set [3], the solubility kinetic at 5 min turned out to be 18 µM (≈ 7.08 µg/mL). In addition, in data set [4], the logD was determined as 4.01.
Turning to `FC(F)(F)c1cc(NCc2nc(-c3ccc(Oc4ccccc4)cc3)cs2)ccn1`, the IC50 in data set [1] is 712 nM; in the data set with Pseudomonas aeruginosa, > 5000 nM. The half-life at 1 µM in data set [2] amounted to 13 min. For the same compound, the solubility kinetic at 5 min in data set [3] was determined as 45 µM (≈ 19.2 µg/mL).
On to `CC(C)Oc1ccc(-c2ncc(CNc3cc(C#N)nc(C(F)(F)F)c3)s2)cc1`, for which the IC50 in data set [1] is 84 nM; with Pseudomonas aeruginosa it was 226 nM. The half-life at 1 µM in data set [2] stood at 32 min. The solubility kinetic at 5 min in data set [3] was determined as 6 µM (≈ 2.51 µg/mL). In data set [4], this compound came in with a logD of 5.12.
For `FC(F)(F)c1cc(NCc2cnc(-c3ccc(C4CC4)cc3)s2)ccn1` the same measures were 28 nM, 179 nM, 14 min, 7 µM (≈ 2.63 µg/mL) and 4.19.
As to `FC(F)(F)c1cc(NCc2cnc(-c3ccc(Cl)nc3)s2)ccn1`, the figures for the concentration for half-maximal inhibition (IC50) (in data set [1]; in the data set with Pseudomonas aeruginosa) were 221 nM and > 5 nM, respectively. Further, the half-life at 1 µM in data set [2] came out at 49 min. Moreover, the solubility kinetic at 5 min in data set [3] was determined as 200 µM (≈ 74.2 µg/mL).
On to `CC(C)Oc1ccc(-c2ncc(CNc3ccnc(Cl)c3)s2)cc1`, for which the IC50 in data set [1] amounted to 45 nM; in the data set on Pseudomonas aeruginosa, 302 nM. Further, the half-life at 1 µM in data set [2] turned out to be 22 min. Besides, in data set [3], the solubility kinetic at 5 min came out at 22 µM (≈ 7.92 µg/mL). The log distribution coefficient (logD) in data set [4] stood at 5.09.
As for `FC(F)(F)c1cc(NCc2cnc(-c3ccc(Oc4ccccc4)cc3)s2)ccn1`, the IC50 worked out at 17 nM in data set [1] and 274 nM in the data set on Pseudomonas aeruginosa. The half-life at 1 µM in data set [2] is 24 min. Also, the solubility kinetic at 5 min in data set [3] came out at 6 µM (≈ 2.56 µg/mL). In data set [4], this compound returned a pH-dependent lipophilicity (logD) of 3.29.
Take `FC(F)(F)c1cc(OCc2cnc(-c3ccc(Oc4ccccc4)cc3)s2)ccn1`: the IC50 in the data set on Pseudomonas aeruginosa was > 5000 nM. The compound also registered a logD in data set [4] of 3.87.
Consider `FC(F)(F)c1cc(NCc2nnc(-c3ccc(Oc4ccccc4)cc3)[nH]2)ccn1`, for which the IC50 in data set [1] was found to be 93 nM; in the data set on Pseudomonas aeruginosa it was 696 nM. Moreover, the half-life at 1 µM in data set [2] is 23 min. The solubility kinetic at 5 min in data set [3] was 48 µM (≈ 19.7 µg/mL). Further, in data set [4], the logD is 3.96.
For `COc1ccc(-c2ncc(CNc3ccnc(C(F)(F)F)c3)s2)cc1C`, in that order: 58 nM, 576 nM, 1 min, 45 µM (≈ 17.1 µg/mL) and 4.02.
On to `FC(F)(F)c1cc(NCc2ccc(-c3ccc(Oc4ccccc4)cc3)o2)ccn1`, for which the half-inhibitory concentration (IC50) with Pseudomonas aeruginosa was > 5000 nM. Besides, the solubility kinetic at 5 min in data set [3] was 63 µM (≈ 25.9 µg/mL).
For `FC(F)(F)c1cc(NCc2csc(-c3ccc(Oc4ccccc4)cc3)n2)ccn1`, the IC50 in data set [1] worked out at 53 nM; in the data set on Pseudomonas aeruginosa, 1400 nM. Also, the half-life at 1 µM in data set [2] is 18 min. Also, in data set [3], the solubility kinetic at 5 min was 18 µM (≈ 7.69 µg/mL). The compound also displayed a pH-dependent lipophilicity (logD) in data set [4] of 5.04.
On to `CC(C)Oc1ccc(-c2ncc(CNc3cc(C#N)nc(C(F)(F)F)c3)s2)cc1Cl`, for which the IC50 was determined as 19 nM in data set [1] and 114 nM with Pseudomonas aeruginosa. In data set [2], the half-life at 1 µM was found to be 58 min. The solubility kinetic at 5 min in data set [3] is 25 µM (≈ 11.3 µg/mL). For the same compound, the logD in data set [4] was 5.01.
For `Clc1cc(NCc2cnc(-c3ccc(Oc4ccccc4)cc3)s2)ccn1`, in that order: 9 nM, 718 nM, 55 min, 2 µM (≈ 0.788 µg/mL) and 4.16.
Turning to `CC(C)Nc1ccc(-c2ncc(CNc3ccnc(C(F)(F)F)c3)s2)cc1`, the results for the half-maximal inhibitory concentration (IC50) (in data set [1]; with Pseudomonas aeruginosa) were 430 nM and 500 nM, respectively. Moreover, the half-life at 1 µM in data set [2] was 7 min. Moreover, in data set [3], the solubility kinetic at 5 min amounted to 39 µM (≈ 15.3 µg/mL).
Regarding `CC(C)Oc1ccc(-c2ncc(CNc3cc(Cl)nc(C(F)(F)F)c3)s2)cc1`, the IC50 came out at 8 nM in data set [1] and 87 nM in the data set with Pseudomonas aeruginosa. For the same compound, the half-life at 1 µM in data set [2] turned out to be 15 min. Moreover, in data set [3], the solubility kinetic at 5 min came out at 35 µM (≈ 15 µg/mL). Moreover, the logD in data set [4] is 5.4.
As to `CC(C)Oc1ccc(-c2ncc(CNc3cc(Cl)nc(C(F)(F)F)c3)s2)cc1Cl`, the concentration for half-maximal inhibition (IC50) in data set [1] is 10 nM; in the data set on Pseudomonas aeruginosa, 109 nM. In addition, the half-life at 1 µM in data set [2] was determined as 28 min. In addition, the solubility kinetic at 5 min in data set [3] was 7 µM (≈ 3.24 µg/mL). Also, the logD in data set [4] turned out to be 5.21.
Regarding `FC(F)(F)c1cc(NCc2cc(-c3ccc(Oc4ccccc4)cc3)no2)ccn1`, the IC50 in data set [1] turned out to be 30 nM; in the data set on Pseudomonas aeruginosa it was 338 nM. In addition, the half-life at 1 µM in data set [2] worked out at 36 min. For the same compound, in data set [3], the solubility kinetic at 5 min stood at 8 µM (≈ 3.29 µg/mL). The compound also yielded a logD in data set [4] of 5.04.
In the case of `COc1c(C)cc(-c2ncc(CNc3ccnc(C(F)(F)F)c3)s2)cc1C`, the concentration for half-maximal inhibition (IC50) (in data set [1]; in the data set with Pseudomonas aeruginosa) was > 5 nM each time.
Regarding `COc1ccc(-c2ncc(CNc3ccnc(C(F)(F)F)c3)s2)cc1Cl`, the results for the half-inhibitory concentration (IC50) (in data set [1]; with Pseudomonas aeruginosa) were 40 nM and 215 nM, respectively. The half-life at 1 µM in data set [2] is 1 min. Further, the solubility kinetic at 5 min in data set [3] was determined as 25 µM (≈ 10 µg/mL). This compound registered a logD in data set [4] of 4.84.
For `FC(F)(F)c1cc(NCc2nnc(-c3ccc(Oc4ccccc4)cc3)o2)ccn1`, in that order: 23 nM, 406 nM, 23 min, 46 µM (≈ 19 µg/mL) and 4.12.
For `FC(F)(F)c1cc(NCc2ncc(-c3ccc(Oc4ccccc4)cc3)s2)ccn1`, in that order: 51 nM, 515 nM, 10 min, 26 µM (≈ 11.1 µg/mL) and 5.54.
For `N#Cc1cc(NCc2cnc(-c3ccc(Oc4ccccc4)cc3)s2)ccn1`, in that order: 30 nM, 290 nM, 39 min, 7 µM (≈ 2.69 µg/mL) and 3.15.
For the compound `CC(C)Oc1ccc(-c2ncc(CNc3cc(Cl)nc(Cl)c3)s2)cc1`, the 50% inhibitory concentration (IC50) in data set [1] is 29 nM; in the data set with Pseudomonas aeruginosa it was 88 nM. Moreover, the half-life at 1 µM in data set [2] is 37 min. Also, the solubility kinetic at 5 min in data set [3] turned out to be 8 µM (≈ 3.15 µg/mL). The compound further showed a log distribution coefficient (logD) in data set [4] of 5.62.
For `FC(F)(F)c1ccc(NCc2cnc(-c3ccc(Oc4ccccc4)cc3)s2)cn1` the same measures were 38 nM, 424 nM, 10 min, 8 µM (≈ 3.42 µg/mL) and 3.42.
As to `N#Cc1ccc(NCc2cnc(-c3ccc(Oc4ccccc4)cc3)s2)cn1`, the IC50 in data set [1] stood at 5 nM; with Pseudomonas aeruginosa, 761 nM. The half-life at 1 µM in data set [2] is 38 min. In addition, in data set [3], the solubility kinetic at 5 min is 6 µM (≈ 2.31 µg/mL). Besides, in data set [4], the logD came to 3.52.
On to `N#Cc1ccc(NCc2cnc(-c3ccc(Oc4ccccc4)cc3)s2)nc1`, for which the figures for the IC50 (in data set [1]; in the data set with Pseudomonas aeruginosa) were 803 nM and > 5000 nM, respectively. Also, the half-life at 1 µM in data set [2] was 20 min. The solubility kinetic at 5 min in data set [3] worked out at 5 µM (≈ 1.92 µg/mL).
`COc1ccc(-c2ncc(CNc3ccnc(C(F)(F)F)c3)s2)cc1`: the results for the half-inhibitory concentration (IC50) (in data set [1]; in the data set with Pseudomonas aeruginosa) were 83 nM and 450 nM, respectively.
With `FC(F)(F)c1cc(SCc2cnc(-c3ccc(Oc4ccccc4)cc3)s2)ccn1`, the values for the concentration for half-maximal inhibition (IC50) (in data set [1]; with Pseudomonas aeruginosa) were 111 nM and 2370 nM, respectively. Moreover, in data set [2], the half-life at 1 µM came out at 11 min. Further, the solubility kinetic at 5 min in data set [3] was found to be 7 µM (≈ 3.11 µg/mL). The same compound showed a logD in data set [4] of 4.03.

The term IC50 denotes the concentration that inhibits the measured activity by half. A word on the half-life: it is the time needed for the level to fall by half in the phase considered. Broadly, the logD is lipophilicity at a set pH, counting ionised and neutral species.
